Biological target: histone deacetylase (HDAC)
Assay: Inhibition of Histone Deacetylase Enzymatic Activity
Type: biochemical
Conditions: substrate Boc-Lys(Ac)-AMC, Fluor-de-Lys developer, 37° C., 20 min; against one or more of HDAC-1 to HDAC-11, SirT1 to SirT7 (isoform not given); read-out: HDAC Inhibitory Activity (IC50)
Protocol: The following protocol is used to assay the compounds of the invention. In the assay, the buffer used is 25 mM HEPES, pH 8.0, 137 mM NaCl, 2.7 mM KCl, 1 mM MgCl2 and the substrate is Boc-Lys(Ac)-AMC in a 50 mM stock solution in DMSO. The enzyme stock solution is 4.08 μg/mL in buffer.
The compounds are pre-incubated (2 μl in DMSO diluted to 13 μl in buffer for transfer to assay plate) with enzyme (20 μl of 4.08 μg/mL) for 10 min at room temperature (35 μl pre-incubation volume). The mixture is pre-incubated for 5 min at room temperature. The reaction is started by bringing the temperature to 37° C. and adding 16 μl substrate. Total reaction volume is 50 μl. […] A plate is incubated in the dark for 10 min at room temperature before reading (λEX=360 nm, λEm=470 nm, Cutoff filter at 435 nm).
In the table, “A” indicates inhibitory activity at a concentration of <0.05 μM; “B” indicates inhibitory activity at a concentration >0.05 μM but <0.5 μM, “C” indicates inhibitory activity at >0.5 μM but <2 μM and “D” indicates inhibitory activity at a concentration of >2 μM but <10 μM.

IC50 | Compound
2000 to 10000 nM | O=C(NO)c1ccc2c(c1)NC(=O)[C@@H](Cc1c[nH]c3ccccc13)N2 [Compound 4f, (R)-2-((1H-indol-3-yl)methyl)-1,2,3,4-tetrahydro-N-hydroxy-3-oxoquinoxaline-6-carboxamide]
< 50 nM | O=C(NO)c1ccc(CN2c3ccccc3NC(=O)[C@H]2Cc2ccc3ccccc3c2)cc1 [Compound 54b10, (R)—N-hydroxy-4-((2-(naphthalen-2-ylmethyl)-3-oxo-3,4-dihydroquinoxalin-1(2H)-yl)methyl)benzamide]
2000 to 10000 nM | CC(C)[C@H]1C(=O)Nc2cc(C(=O)NO)ccc2N1Cc1ccc(F)cc1 [Compound 16a, (S)-1-(4-fluorobenzyl)-N-hydroxy-2-isopropyl-3-oxo-1,2,3,4-tetrahydroquinoxaline-6-carboxamide]
< 50 nM | O=C(NO)c1cnc(N[C@H]2C[C@@H](C(=O)Nc3cccc4cccnc34)N(C(=O)OCc3ccccc3)C2)nc1 [Compound 122, (2S,4S)-Benzyl 4-(5-(hydroxycarbamoyl)pyrimidin-2-ylamino)-2-(quinolin-8-ylcarbamoyl)pyrrolidine-1-carboxylate]
2000 to 10000 nM | CC(C)[C@H]1Nc2ccc(C(=O)NO)cc2NC1=O [Compound 4e, (R)-1,2,3,4-tetrahydro-N-hydroxy-2-isopropyl-3-oxoquinoxaline-6-carboxamide]
2000 to 10000 nM | CC(C)[C@@H]1NC(=O)c2ccc(C(=O)NO)cc2NC1=O [Compound 97b, (S)-N-Hydroxy-3-isopropyl-2,5-dioxo-2,3,4,5-tetrahydro-1H-benzo[e][1,4]diazepine-8-carboxamide]
50 to 500 nM | CC(C)(C)C[C@@H]1NC(=O)c2ccccc2N(CCCCCC(=O)NO)C1=O [Compound 68b3, 6-((S)-2,3,4,5-tetrahydro-3-neopentyl-2,5-dioxobenzo[e][1,4]diazepin-1-yl)-N-hydroxyhexanamide]
50 to 500 nM | O=C(CCCCCN1C(=O)[C@@H](c2ccccc2)NC(=O)c2ccccc21)NO [Compound 68b4, 6-((R)-2,3,4,5-tetrahydro-2,5-dioxo-3-phenylbenzo[e][1,4]diazepin-1-yl)-N-hydroxyhexanamide]
50 to 500 nM | O=C(NO)c1ccc(CN2c3ccccc3NC(=O)[C@@H]2Cc2csc3ccccc23)cc1 [Compound 54b14, (S)-4-((2-(benzo[b]thiophen-3-ylmethyl)-3-oxo-3,4-dihydroquinoxalin-1(2H)-yl)methyl)-N-hydroxybenzamide]
50 to 500 nM | O=C(CCCCCC1NC(=O)c2ccccc2NC1=O)NO (centres unmarked) [Compound 74, 6-(2,3,4,5-Tetrahydro-2,5-dioxo-1H-benzo[e][1,4]diazepin-3-yl)-N-hydroxyhexanamide]
< 50 nM | O=C(NO)c1ccc(CN2C(=O)CNC(=O)[C@H]2Cc2c[nH]c3ccccc23)cc1 [Compound 136a, (R)-4-((2-((1H-Indol-3-yl)methyl)-3,6-dioxopiperazin-1-yl)methyl)-N-hydroxybenzamide]
500 to 2000 nM | CC(C)C[C@@H]1NC(=O)c2ccccc2N(CCCCCC(=O)NO)C1=O [Compound 68b1, 6-((S)-2,3,4,5-tetrahydro-3-isobutyl-2,5-dioxobenzo[e][1,4]diazepin-1-yl)-N-hydroxyhexanamide]
< 50 nM | O=C(CCCCCCC(=O)Nc1ccc2c(c1)NC(=O)[C@@H](Cc1c[nH]c3ccccc13)N2)NO [Compound 24f, N1—((R)-2-((1H-Indol-3-yl)methyl)-1,2,3,4-tetrahydro-3-oxoquinoxalin-6-yl)-N8-hydroxyoctanediamide]
50 to 500 nM | O=C(NO)c1ccc(O[C@H]2C[C@@H](C(=O)Nc3cccc4cccnc34)N(C(=O)OCc3ccccc3)C2)cc1 [Compound 109a, (2S,4S)-Benzyl 4-(4-(hydroxycarbamoyl)phenoxy)-2-(quinolin-8-ylcarbamoyl)pyrrolidine-1-carboxylate]
500 to 2000 nM | COc1ccc(CN2c3ccc(C(=O)NO)cc3NC(=O)[C@@H]2C(C)C)cc1 [Compound 8, (S)-1-(4-Methoxybenzyl)-1,2,3,4-tetrahydro-N-hydroxy-2-isopropyl-3oxoquinoxaline-6-carboxamide]
2000 to 10000 nM | CC(C)[C@H]1C(=O)Nc2cc(C(=O)NO)ccc2N1Cc1ccccc1 [Compound 16g, (S)-1-benzyl-1,2,3,4-tetrahydro-N-hydroxy-2-isopropyl-3-oxoquinoxaline-6-carboxamide]

IC50 | Compound
50 to 500 nM | CC(C)[C@@H]1Nc2ccc(C(=O)NCCCCCC(=O)NO)cc2NC1=O [Compound 13, (S)—N-(5-(Hydroxycarbamoyl)pentyl)-1,2,3,4-tetrahydro-2-isopropyl-3-oxoquinoxaline-6-carboxamide]
500 to 2000 nM | Cn1cc(C[C@@H]2Nc3ccc(C(=O)NO)cc3NC2=O)c2ccccc21 [Compound 4l, (S)-1,2,3,4-tetrahydro-N-hydroxy-2-((1-methyl-1-H-indol-3-yl)methyl)-3-oxoquinoxaline-6-carboxamide]
500 to 2000 nM | CC(C)[C@H]1C(=O)Nc2cc(C(=O)NO)ccc2N1S(=O)(=O)c1cccc2ccccc12 [Compound 18f]
2000 to 10000 nM | O=C(NO)c1ccc2c(c1)NC(=O)[C@@H](CC1CCCCC1)NC2=O [Compound 97g, (R)-3-(Cyclohexylmethyl)-N-hydroxy-2,5-dioxo-2,3,4,5-tetrahydro-1H-benzo[e][1,4]diazepine-8-carboxamide]
500 to 2000 nM | COc1cc(CN2C(=O)C(CCCCCC(=O)NO)NC(=O)c3ccccc32)cc(OC)c1 (centres unmarked) [Compound 81, 6-(1-(3,5-Dimethoxybenzyl)-2,3,4,5-tetrahydro-2,5-dioxo-1H-benzo[e][1,4]diazepin-3-yl)-N-hydroxyhexanamide]
50 to 500 nM | C[C@H]1NC(=O)c2ccccc2N(CCCCCC(=O)NO)C1=O [Compound 68b23, 6-((R)-2,3,4,5-Tetrahydro-3-methyl-2,5-dioxobenzo[e][1,4]diazepin-1-yl)-N-hydroxyhexanamide]
2000 to 10000 nM | O=C1CNC(=O)c2ccc(C(=O)NO)cc2N1 [Compound 97k, N-Hydroxy-2,5-dioxo-2,3,4,5-tetrahydro-1H-benzo[e][1,4]diazepine-8-carboxamide]
50 to 500 nM | O=C(CCCCCC1NC(=O)c2cc(Oc3ccccc3)ccc2NC1=O)NO (centres unmarked) [Compound 88a, 6-(2,3,4,5-Tetrahydro-2,5-dioxo-7-phenoxy-1H-benzo[e][1,4]diazepin-3-yl)-N-hydroxyhexanamide]
2000 to 10000 nM | O=C(CCCCCN1C(=O)[C@H](Cc2c[nH]c3ccccc23)NC(=O)c2ccccc21)NO [Compound 68b7, 6-((S)-3-((1H-Indol-3-yl)methyl)-2,3,4,5-tetrahydro-2,5-dioxobenzo[e][1,4]diazepin-1-yl)-N hydroxyhexanamide]
50 to 500 nM | O=C(CCCCCN1C(=O)[C@H](c2ccccc2)NC(=O)c2ccccc21)NO [Compound 68b11, 6-((S)-2,3,4,5-tetrahydro-2,5-dioxo-3-phenylbenzo[e][1,4]diazepin-1-yl)-N-hydro-xyhexanamide]
2000 to 10000 nM | O=C(CCCCCN1C(=O)C2(CCCC2)NC(=O)c2ccccc21)NO [Compound 68b16, 6-(3,3-Spirocyclopentyl-2,5-dioxo-2,3,4,5, tetrahydrobenzo [e][1,4]diazepin-1-yl)-N-hydroxyhexanamide]
2000 to 10000 nM | CC(C)[C@@H]1Nc2ccc(NC(=O)CCCCCCC(=O)Nc3ccccc3N)cc2NC1=O [Compound 23a, N1-(2-Aminophenyl)-N8—((S)-1,2,3,4-tetrahydro-2-isopropyl-3-oxoquinoxalin-6-yl)octanediamide]
500 to 2000 nM | O=C(CCO[C@@H]1C[C@H](C(=O)Nc2cccc3cccnc23)N(C(=O)OCc2ccccc2)C1)NO [Compound 112c, (2R,4R)-benzyl 4-(3-(hydroxyamino)-3-oxopropoxy)-2-(quinolin-8-ylcarbamoyl) pyrrolidine-1-carboxylate]
500 to 2000 nM | O=C(NO)c1ccc2c(c1)NC(=O)[C@@H](Cc1c[nH]c3ccccc13)NC2=O [Compound 97d, (R)-3-((1H-Indol-3-yl)methyl)-N-hydroxy-2,5-dioxo-2,3,4,5-tetrahydro-1H-benzo[e][1,4]diazepine-8-carboxamide]
50 to 500 nM | CC(C)[C@@H]1Nc2ccc(NC(=O)CCCCCCC(=O)c3ncco3)cc2NC1=O [Compound 29a, N—((S)-1,2,3,4-Tetrahydro-2-isopropyl-3-oxoquinoxalin-6-yl)-8-(oxazol-2-yl)-8-oxooctanamide]
50 to 500 nM | CC(C)[C@H]1C(=O)Nc2cc(C(=O)NO)ccc2N1Cc1ccc(C(=N)NO)cc1 [Compound 16f, (S)—N-hydroxy-1-(4-(N-hydroxycarbamimidoyl)benzyl)-2-isopropyl-3-oxo-1,2,3,4-tetrahydroquinoxaline-6-carboxamide]

Compound | IC50
O=C1CN(Cc2ccc(C(=O)NO)cc2)c2ccccc2N1 [Compound 54b1, N-hydroxy-4-((3-oxo-3,4-dihydroquinoxalin-1(2H)-yl)methyl)-benzamide] | < 50 nM
O=C(NO)c1ccc(CN2c3ccccc3NC(=O)[C@H]2CCc2ccccc2)cc1 [Compound 54b7, (R)—N-hydroxy-4-((3-oxo-2-phenethyl-3,4-dihydroquinoxalin-1(2H)-yl)methyl)benzamide] | < 50 nM
O=C(NO)c1ccc(CN2c3ccccc3NC(=O)[C@@H]2Cc2ccccc2)cc1 [Compound 54b4, (S)-4-((2-benzyl-3-oxo-3,4-dihydroquinoxalin-1(2H)-yl)methyl)-N-hydroxybenzamide] | < 50 nM

From patent US20070155730A1, “Benzodiazepine And Benzopiperazine Analog Inhibitors Of Histone Deacetylase” (METHYLGENE, INC., priority 2005, published 2007)
